What was measured:
Assay in all cases: radiometric filter-binding kinase assay, Kinase HotSpot
Conditions in all cases: compound 0.5 µM; ATP 10 µM
MAP2K1 (human) = MAP2K1 (human) (UniProt Q02750)
EPHB2 (human) = EPHB2 (human) (UniProt P29323)
CDK5 CDK5R1 p35 (human) = CDK5 CDK5R1 p35 (human) (UniProt Q00535+Q15078)
CDC42BPB (human) = CDC42BPB (human) (UniProt Q9Y5S2)
PRKD1 (human) = PRKD1 (human) (UniProt Q15139)
FGFR2 (human) = FGFR2 (human) (UniProt P21802)
IRAK1 (human) = IRAK1 (human) (UniProt P51617)
IRAK1 (human), sequence (P51617 whole entry, looked up): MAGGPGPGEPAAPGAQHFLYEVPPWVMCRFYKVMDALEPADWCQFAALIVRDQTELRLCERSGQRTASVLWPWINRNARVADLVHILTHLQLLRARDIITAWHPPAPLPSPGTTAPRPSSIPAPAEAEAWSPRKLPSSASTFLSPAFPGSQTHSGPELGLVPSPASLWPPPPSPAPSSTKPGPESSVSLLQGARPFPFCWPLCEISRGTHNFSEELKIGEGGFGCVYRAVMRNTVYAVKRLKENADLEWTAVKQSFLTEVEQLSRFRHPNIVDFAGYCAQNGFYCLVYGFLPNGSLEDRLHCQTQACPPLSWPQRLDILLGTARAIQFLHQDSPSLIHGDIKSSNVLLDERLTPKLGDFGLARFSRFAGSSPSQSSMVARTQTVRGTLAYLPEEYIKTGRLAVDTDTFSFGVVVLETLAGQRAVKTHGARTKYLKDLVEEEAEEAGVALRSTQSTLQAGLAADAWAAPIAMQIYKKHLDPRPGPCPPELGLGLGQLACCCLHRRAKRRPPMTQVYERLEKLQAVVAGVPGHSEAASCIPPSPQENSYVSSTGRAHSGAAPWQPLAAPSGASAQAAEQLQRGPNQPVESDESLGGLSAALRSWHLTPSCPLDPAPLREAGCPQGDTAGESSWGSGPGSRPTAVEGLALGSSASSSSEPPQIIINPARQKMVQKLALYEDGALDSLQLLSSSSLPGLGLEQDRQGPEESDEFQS

GSG2 (human) = GSG2 (human) (UniProt Q8TF76)
NEK2 (human) = NEK2 (human) (UniProt P51955)
NEK2 (human), sequence (P51955 whole entry, looked up): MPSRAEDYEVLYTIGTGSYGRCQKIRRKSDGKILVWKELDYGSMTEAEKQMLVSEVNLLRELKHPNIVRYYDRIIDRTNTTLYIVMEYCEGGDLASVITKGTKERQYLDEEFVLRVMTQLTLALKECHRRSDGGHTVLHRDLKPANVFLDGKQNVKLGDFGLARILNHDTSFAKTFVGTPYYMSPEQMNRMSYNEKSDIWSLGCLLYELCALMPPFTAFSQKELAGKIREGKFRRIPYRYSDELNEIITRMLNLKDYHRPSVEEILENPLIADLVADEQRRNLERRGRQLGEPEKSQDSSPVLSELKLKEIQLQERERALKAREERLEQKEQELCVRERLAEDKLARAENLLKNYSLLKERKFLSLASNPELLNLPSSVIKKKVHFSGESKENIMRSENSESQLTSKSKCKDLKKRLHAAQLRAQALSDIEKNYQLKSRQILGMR

RPS6KA4 KD2 (human) = RPS6KA4 KD2 (human) (UniProt O75676)
RPS6KA1 KD1 KD2 (human) = RPS6KA1 KD1 KD2 (human) (UniProt Q15418)
TNK2 (human) = TNK2 (human) (UniProt Q07912)
TNK2 (human), sequence (Q07912 whole entry, looked up): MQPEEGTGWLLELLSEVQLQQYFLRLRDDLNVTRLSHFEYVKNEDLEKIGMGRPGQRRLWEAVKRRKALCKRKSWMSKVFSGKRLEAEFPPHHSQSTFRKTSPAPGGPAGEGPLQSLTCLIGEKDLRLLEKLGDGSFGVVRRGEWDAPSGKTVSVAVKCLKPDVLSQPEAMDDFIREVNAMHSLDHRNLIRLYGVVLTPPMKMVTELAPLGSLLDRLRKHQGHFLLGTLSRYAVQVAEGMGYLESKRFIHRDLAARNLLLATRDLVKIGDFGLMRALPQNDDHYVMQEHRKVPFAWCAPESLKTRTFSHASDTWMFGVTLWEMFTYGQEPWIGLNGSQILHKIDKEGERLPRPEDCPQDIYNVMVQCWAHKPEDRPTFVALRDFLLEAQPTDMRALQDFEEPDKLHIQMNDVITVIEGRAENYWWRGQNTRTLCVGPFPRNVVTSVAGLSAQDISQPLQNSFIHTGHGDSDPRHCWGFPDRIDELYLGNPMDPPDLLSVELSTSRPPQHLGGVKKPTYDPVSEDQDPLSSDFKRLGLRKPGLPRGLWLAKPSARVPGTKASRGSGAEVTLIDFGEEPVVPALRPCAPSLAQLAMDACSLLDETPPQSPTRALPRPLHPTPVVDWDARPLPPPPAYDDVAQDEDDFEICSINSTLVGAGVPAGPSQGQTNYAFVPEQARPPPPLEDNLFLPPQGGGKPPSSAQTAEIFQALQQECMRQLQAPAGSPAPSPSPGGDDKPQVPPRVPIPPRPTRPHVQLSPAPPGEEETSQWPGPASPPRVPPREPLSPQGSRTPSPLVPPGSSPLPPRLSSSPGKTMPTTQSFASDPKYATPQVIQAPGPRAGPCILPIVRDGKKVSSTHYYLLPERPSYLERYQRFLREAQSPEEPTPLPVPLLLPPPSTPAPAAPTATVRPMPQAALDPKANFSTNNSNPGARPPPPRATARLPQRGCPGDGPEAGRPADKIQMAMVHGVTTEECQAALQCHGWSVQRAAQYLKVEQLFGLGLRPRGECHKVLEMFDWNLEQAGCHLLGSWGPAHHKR

AURKA (human) = AURKA (human) (UniProt O14965)
AURKA (human), sequence (O14965 whole entry, looked up): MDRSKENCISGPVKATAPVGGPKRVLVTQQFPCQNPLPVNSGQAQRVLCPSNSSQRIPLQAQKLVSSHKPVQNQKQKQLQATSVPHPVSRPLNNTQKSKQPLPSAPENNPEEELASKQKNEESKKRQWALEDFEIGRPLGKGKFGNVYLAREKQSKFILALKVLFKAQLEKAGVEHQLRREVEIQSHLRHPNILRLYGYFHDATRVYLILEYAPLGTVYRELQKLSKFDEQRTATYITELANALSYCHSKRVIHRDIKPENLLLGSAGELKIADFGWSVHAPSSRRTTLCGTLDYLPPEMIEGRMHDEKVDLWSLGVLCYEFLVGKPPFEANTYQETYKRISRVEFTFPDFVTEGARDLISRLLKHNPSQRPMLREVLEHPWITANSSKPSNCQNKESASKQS

CDK4 CCND1 (human) = CDK4 CCND1 (human) (UniProt P24385+P11802)
GRK4 (human) = GRK4 (human) (UniProt P32298)
SIK2 (human) = SIK2 (human) (UniProt Q9H0K1)
PLK2 (human) = PLK2 (human) (UniProt Q9NYY3)
PRKCD (human) = PRKCD (human) (UniProt Q05655)
PAK7 (human) = PAK7 (human) (UniProt Q9P286)
TLK2 (human) = TLK2 (human) (UniProt Q86UE8)
TLK2 (human), sequence (Q86UE8 whole entry, looked up): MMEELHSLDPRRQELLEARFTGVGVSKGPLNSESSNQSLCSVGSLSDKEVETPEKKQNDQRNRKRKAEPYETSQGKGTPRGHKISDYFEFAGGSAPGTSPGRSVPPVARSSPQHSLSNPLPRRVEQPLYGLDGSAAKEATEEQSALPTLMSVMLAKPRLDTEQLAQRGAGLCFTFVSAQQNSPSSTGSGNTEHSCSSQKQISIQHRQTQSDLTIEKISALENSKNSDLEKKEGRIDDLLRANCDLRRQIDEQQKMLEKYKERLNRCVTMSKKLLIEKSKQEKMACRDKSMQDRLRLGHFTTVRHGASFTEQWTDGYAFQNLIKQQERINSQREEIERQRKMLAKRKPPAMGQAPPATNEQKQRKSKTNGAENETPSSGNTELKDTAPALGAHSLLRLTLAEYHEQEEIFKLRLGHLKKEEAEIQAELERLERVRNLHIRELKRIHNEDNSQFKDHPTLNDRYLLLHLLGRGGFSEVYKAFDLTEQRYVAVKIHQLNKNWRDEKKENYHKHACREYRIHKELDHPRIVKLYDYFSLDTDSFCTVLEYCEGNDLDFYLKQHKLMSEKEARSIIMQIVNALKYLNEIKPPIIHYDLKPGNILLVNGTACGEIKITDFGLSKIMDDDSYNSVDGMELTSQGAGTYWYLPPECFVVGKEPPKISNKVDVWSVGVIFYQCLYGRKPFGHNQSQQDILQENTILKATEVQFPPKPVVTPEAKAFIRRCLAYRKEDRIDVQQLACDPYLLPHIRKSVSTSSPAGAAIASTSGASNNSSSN

BTK (human) = BTK (human) (UniProt Q06187)
EPHA8 (human) = EPHA8 (human) (UniProt P29322)
FGR (human) = FGR (human) (UniProt P09769)
NTRK1 (human) = NTRK1 (human) (UniProt P04629)
NTRK1 (human), sequence (P04629 whole entry, looked up): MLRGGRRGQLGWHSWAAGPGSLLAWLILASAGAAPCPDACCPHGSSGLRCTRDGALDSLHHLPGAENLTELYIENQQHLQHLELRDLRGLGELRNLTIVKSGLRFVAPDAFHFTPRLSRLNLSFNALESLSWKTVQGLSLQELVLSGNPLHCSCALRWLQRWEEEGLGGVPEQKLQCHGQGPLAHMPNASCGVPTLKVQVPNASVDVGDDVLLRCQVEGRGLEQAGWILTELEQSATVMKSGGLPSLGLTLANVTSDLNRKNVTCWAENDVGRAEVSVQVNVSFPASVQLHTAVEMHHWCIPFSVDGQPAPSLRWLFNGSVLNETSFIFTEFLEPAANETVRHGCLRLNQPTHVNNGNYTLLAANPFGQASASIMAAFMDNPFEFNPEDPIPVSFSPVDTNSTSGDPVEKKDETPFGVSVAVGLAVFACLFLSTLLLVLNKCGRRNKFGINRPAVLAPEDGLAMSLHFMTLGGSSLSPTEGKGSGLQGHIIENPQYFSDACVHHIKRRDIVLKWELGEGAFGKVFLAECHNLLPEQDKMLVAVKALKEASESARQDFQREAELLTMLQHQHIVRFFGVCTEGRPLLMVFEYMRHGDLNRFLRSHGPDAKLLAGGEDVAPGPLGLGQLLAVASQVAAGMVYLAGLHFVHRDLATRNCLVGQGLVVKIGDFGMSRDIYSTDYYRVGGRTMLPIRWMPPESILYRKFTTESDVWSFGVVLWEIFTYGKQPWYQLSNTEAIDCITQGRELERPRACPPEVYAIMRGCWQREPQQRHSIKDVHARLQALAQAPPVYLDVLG

CDC42BPA (human) = CDC42BPA (human) (UniProt Q5VT25)
DMPK (human) = DMPK (human) (UniProt Q09013)
DYRK1B (human) = DYRK1B (human) (UniProt Q9Y463)
JAK3 JH1 JH2 (human) = JAK3 JH1 JH2 (human) (UniProt P52333)
ABL2 (human) = ABL2 (human) (UniProt P42684)
FGFR1 (human) = FGFR1 (human) (UniProt P11362)
MYO3B (human) = MYO3B (human) (UniProt Q8WXR4)
SRPK3 (human) = SRPK3 (human) (UniProt Q9UPE1)
CAMK2A (human) = CAMK2A (human) (UniProt Q9UQM7)
MAPK9 (human) = MAPK9 (human) (UniProt P45984)
RPS6KB2 (human) = RPS6KB2 (human) (UniProt Q9UBS0)
[1] = target: JAK1 JH1 catalytic (human) (UniProt P23458)
MAPK10 (human) = MAPK10 (human) (UniProt P53779)
AKT1 (human) = AKT1 (human) (UniProt P31749)
ALK (human) = ALK (human) (UniProt Q9UM73)
OXSR1 (human) = OXSR1 (human) (UniProt O95747)
WEE1 (human) = WEE1 (human) (UniProt P30291)
TAOK2 (human) = TAOK2 (human) (UniProt Q9UL54)

PRKD1 (human), sequence (Q15139 whole entry, looked up): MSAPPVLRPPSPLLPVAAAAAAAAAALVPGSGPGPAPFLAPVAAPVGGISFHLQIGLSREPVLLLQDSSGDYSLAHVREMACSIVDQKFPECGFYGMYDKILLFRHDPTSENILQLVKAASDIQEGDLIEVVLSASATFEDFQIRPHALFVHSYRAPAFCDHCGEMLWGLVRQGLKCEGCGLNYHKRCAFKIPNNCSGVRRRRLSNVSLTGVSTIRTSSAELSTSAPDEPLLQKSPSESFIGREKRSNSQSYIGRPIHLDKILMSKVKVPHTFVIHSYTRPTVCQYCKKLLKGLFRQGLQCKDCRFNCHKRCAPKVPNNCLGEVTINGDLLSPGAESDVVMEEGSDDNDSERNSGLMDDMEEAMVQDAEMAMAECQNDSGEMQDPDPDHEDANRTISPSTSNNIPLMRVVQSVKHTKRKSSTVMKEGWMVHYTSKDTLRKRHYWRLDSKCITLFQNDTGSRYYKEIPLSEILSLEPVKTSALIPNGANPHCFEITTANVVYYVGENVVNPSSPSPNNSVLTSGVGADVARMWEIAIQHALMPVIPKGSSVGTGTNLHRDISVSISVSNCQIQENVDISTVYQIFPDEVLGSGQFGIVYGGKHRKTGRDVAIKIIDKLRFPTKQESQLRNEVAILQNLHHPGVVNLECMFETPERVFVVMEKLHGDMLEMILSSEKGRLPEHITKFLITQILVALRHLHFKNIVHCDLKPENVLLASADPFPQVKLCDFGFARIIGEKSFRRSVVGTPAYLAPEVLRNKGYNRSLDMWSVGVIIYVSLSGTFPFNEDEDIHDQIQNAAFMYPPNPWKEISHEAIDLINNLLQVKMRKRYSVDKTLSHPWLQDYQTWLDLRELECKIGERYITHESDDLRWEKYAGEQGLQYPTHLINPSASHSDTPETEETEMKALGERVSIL

Nc1ncnc2[nH]nc(Nc3ccc(F)cc3)c12
residual activity (MAP2K1 (human)): 101% | residual activity (EPHB2 (human)): 91.6% | residual activity (CDK5 CDK5R1 p35 (human)): 98.6% | residual activity (CDC42BPB (human)): 106% | residual activity (PRKD1 (human)): 98.9% | residual activity (FGFR2 (human)): 97.2% | residual activity (IRAK1 (human)): 91.8% | residual activity (GSG2 (human)): 87.7% | residual activity (NEK2 (human)): 89.3% | residual activity (RPS6KA4 KD2 (human)): 114% | residual activity (RPS6KA1 KD1 KD2 (human)): 82.2% | residual activity (TNK2 (human)): 61.5% | residual activity (AURKA (human)): 92.3% | residual activity (CDK4 CCND1 (human)): 90.3% | residual activity (GRK4 (human)): 98.8% | residual activity (SIK2 (human)): 78.7% | residual activity (PLK2 (human)): 101% | residual activity (PRKCD (human)): 112% | residual activity (PAK7 (human)): 116% | residual activity (TLK2 (human)): 79% | residual activity (BTK (human)): 82.3% | residual activity (EPHA8 (human)): 94% | residual activity (FGR (human)): 89.5% | residual activity (NTRK1 (human)): 109% | residual activity (CDC42BPA (human)): 103% | residual activity (DMPK (human)): 114% | residual activity (DYRK1B (human)): 99.2% | residual activity (JAK3 JH1 JH2 (human)): 102% | residual activity (ABL2 (human)): 82.3% | residual activity (FGFR1 (human)): 91.2% | residual activity (MYO3B (human)): 87.9% | residual activity (SRPK3 (human)): 91.5% | residual activity (CAMK2A (human)): 105% | residual activity (MAPK9 (human)): 103% | residual activity (RPS6KB2 (human)): 96.8% | residual activity [1]: 99% | residual activity (MAPK10 (human)): 100% | residual activity (AKT1 (human)): 93.3% | residual activity (ALK (human)): 88.9% | residual activity (OXSR1 (human)): 110% | residual activity (WEE1 (human)): 93.9% | residual activity (TAOK2 (human)): 97.3%

CNc1cc2c(Nc3cccc(Br)c3)ncnc2cn1
residual activity (MAP2K1 (human)): 74.6% | residual activity (EPHB2 (human)): 91.2% | residual activity (CDK5 CDK5R1 p35 (human)): 100% | residual activity (CDC42BPB (human)): 107% | residual activity (PRKD1 (human)): 92.3% | residual activity (FGFR2 (human)): 96.3% | residual activity (IRAK1 (human)): 85.2% | residual activity (GSG2 (human)): 91.8% | residual activity (NEK2 (human)): 88.3% | residual activity (RPS6KA4 KD2 (human)): 109% | residual activity (RPS6KA1 KD1 KD2 (human)): 90.9% | residual activity (TNK2 (human)): 30.3% | residual activity (AURKA (human)): 85.1% | residual activity (CDK4 CCND1 (human)): 104% | residual activity (GRK4 (human)): 98.2% | residual activity (SIK2 (human)): 98.3% | residual activity (PLK2 (human)): 97.5% | residual activity (PRKCD (human)): 94.7% | residual activity (PAK7 (human)): 90.8% | residual activity (TLK2 (human)): 114% | residual activity (BTK (human)): 94.7% | residual activity (EPHA8 (human)): 87.9% | residual activity (FGR (human)): 88.3% | residual activity (NTRK1 (human)): 95.9% | residual activity (CDC42BPA (human)): 95.2% | residual activity (DMPK (human)): 112% | residual activity (DYRK1B (human)): 92.3% | residual activity (JAK3 JH1 JH2 (human)): 103% | residual activity (ABL2 (human)): 84.8% | residual activity (FGFR1 (human)): 96.5% | residual activity (MYO3B (human)): 91.1% | residual activity (SRPK3 (human)): 97.1% | residual activity (CAMK2A (human)): 105% | residual activity (MAPK9 (human)): 96.5% | residual activity (RPS6KB2 (human)): 99.8% | residual activity [1]: 79.9% | residual activity (MAPK10 (human)): 96.1% | residual activity (AKT1 (human)): 98.8% | residual activity (ALK (human)): 82% | residual activity (OXSR1 (human)): 88.3% | residual activity (WEE1 (human)): 75.9% | residual activity (TAOK2 (human)): 95.3%

Nc1ccc2ncnc(NCCc3ccc(Oc4ccccc4)cc3)c2c1
residual activity (MAP2K1 (human)): 107% | residual activity (EPHB2 (human)): 97.7% | residual activity (CDK5 CDK5R1 p35 (human)): 103% | residual activity (CDC42BPB (human)): 105% | residual activity (PRKD1 (human)): 99.3% | residual activity (FGFR2 (human)): 95.5% | residual activity (IRAK1 (human)): 107% | residual activity (GSG2 (human)): 96.9% | residual activity (NEK2 (human)): 90% | residual activity (RPS6KA4 KD2 (human)): 107% | residual activity (RPS6KA1 KD1 KD2 (human)): 108% | residual activity (TNK2 (human)): 102% | residual activity (AURKA (human)): 105% | residual activity (CDK4 CCND1 (human)): 102% | residual activity (GRK4 (human)): 99.6% | residual activity (SIK2 (human)): 97.4% | residual activity (PLK2 (human)): 102% | residual activity (PRKCD (human)): 97.6% | residual activity (PAK7 (human)): 106% | residual activity (TLK2 (human)): 92.8% | residual activity (BTK (human)): 96.8% | residual activity (EPHA8 (human)): 101% | residual activity (FGR (human)): 101% | residual activity (NTRK1 (human)): 108% | residual activity (CDC42BPA (human)): 102% | residual activity (DMPK (human)): 94.2% | residual activity (DYRK1B (human)): 104% | residual activity (JAK3 JH1 JH2 (human)): 96.9% | residual activity (ABL2 (human)): 102% | residual activity (FGFR1 (human)): 86.3% | residual activity (MYO3B (human)): 96.6% | residual activity (SRPK3 (human)): 96.6% | residual activity (CAMK2A (human)): 71.3% | residual activity (MAPK9 (human)): 85% | residual activity (RPS6KB2 (human)): 99.2% | residual activity [1]: 94.6% | residual activity (MAPK10 (human)): 104% | residual activity (AKT1 (human)): 98.2% | residual activity (ALK (human)): 108% | residual activity (OXSR1 (human)): 101% | residual activity (WEE1 (human)): 86.2% | residual activity (TAOK2 (human)): 102%

O=C1NC(=O)/C(=C/c2ccc3c(c2)OC(F)(F)O3)S1
residual activity (MAP2K1 (human)): 95.6% | residual activity (EPHB2 (human)): 95.8% | residual activity (CDK5 CDK5R1 p35 (human)): 103% | residual activity (CDC42BPB (human)): 96.4% | residual activity (PRKD1 (human)): 94.8% | residual activity (FGFR2 (human)): 97.6% | residual activity (IRAK1 (human)): 84.2% | residual activity (GSG2 (human)): 96.7% | residual activity (NEK2 (human)): 98.9% | residual activity (RPS6KA4 KD2 (human)): 108% | residual activity (RPS6KA1 KD1 KD2 (human)): 71.1% | residual activity (TNK2 (human)): 93.3% | residual activity (AURKA (human)): 92.4% | residual activity (CDK4 CCND1 (human)): 97.1% | residual activity (GRK4 (human)): 102% | residual activity (SIK2 (human)): 101% | residual activity (PLK2 (human)): 99.7% | residual activity (PRKCD (human)): 93.2% | residual activity (PAK7 (human)): 93% | residual activity (TLK2 (human)): 104% | residual activity (BTK (human)): 94.3% | residual activity (EPHA8 (human)): 93.8% | residual activity (FGR (human)): 95.8% | residual activity (NTRK1 (human)): 92.5% | residual activity (CDC42BPA (human)): 98.5% | residual activity (DMPK (human)): 97.5% | residual activity (DYRK1B (human)): 101% | residual activity (JAK3 JH1 JH2 (human)): 98.6% | residual activity (ABL2 (human)): 96% | residual activity (FGFR1 (human)): 94.3% | residual activity (MYO3B (human)): 87.9% | residual activity (SRPK3 (human)): 95.4% | residual activity (CAMK2A (human)): 96.8% | residual activity (MAPK9 (human)): 90.9% | residual activity (RPS6KB2 (human)): 101% | residual activity [1]: 104% | residual activity (MAPK10 (human)): 102% | residual activity (AKT1 (human)): 98.2% | residual activity (ALK (human)): 83.4% | residual activity (OXSR1 (human)): 97.1% | residual activity (WEE1 (human)): 88.8% | residual activity (TAOK2 (human)): 96.9%

From the kinase profiling compilation of Christmann-Franck et al. (2016)
